Test system: HOP-62 multicell spheroids with HUVEC/MSC, viability
Experiment: Anticancer human tumor HOP-62 cell line growth inhibition [KRAS2];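 further: viability read after a week of compound exposure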;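 on viability, T/C: 100% = DMSO vehicle-treated spheroids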
Conditions: for viability, T/C: stronger effect = lower value; active means viability on the fitted dose curve at most 10% of control; inactive means the rest
How it was run: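 KRAS-mutant tumor cells were grown as spheroids with HUVEC endothelial cells and human MSCs as stroma. Targeted agents were tested alone and with KRAS pathway inhibitors. Doses started at or near clinical Cmax, or 10 microM, descending half-log.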

[1] = curve of first compound, second compound 0.1 µM
[2] = curve of first compound, second compound 0.316 µM
[3] = curve of first compound, second compound 1 µM
[4] = curve of first compound, second compound 3.16 µM
[5] = curve of first compound, second compound 10 µM
[6] = second compound 0.1 µM, first compound 0.01 µM
[7] = second compound 0.1 µM, first compound 0.0316 µM
[8] = second compound 0.1 µM, first compound 0.1 µM
[9] = second compound 0.316 µM, first compound 0.01 µM
[10] = second compound 0.316 µM, first compound 0.0316 µM
[11] = second compound 0.316 µM, first compound 0.1 µM
[12] = second compound 1 µM, first compound 0.01 µM
[13] = second compound 1 µM, first compound 0.0316 µM
[14] = second compound 1 µM, first compound 0.1 µM
[15] = second compound 3.16 µM, first compound 0.01 µM
[16] = second compound 3.16 µM, first compound 0.0316 µM
[17] = second compound 3.16 µM, first compound 0.1 µM
[18] = second compound 10 µM, first compound 0.01 µM
[19] = second compound 10 µM, first compound 0.0316 µM
[20] = second compound 10 µM, first compound 0.1 µM

CC(=O)OC12COC1CC(O)C1(C)C(=O)C(O)C3=C(C)C(OC(=O)C(O)C(NC(=O)OC(C)(C)C)c4ccccc4)CC(O)(C(OC(=O)c4ccccc4)C21)C3(C)C (stereo unspecified) + C=CC(=O)N1CCN(c2nc(=O)n(-c3c(C)ccnc3C(C)C)c3nc(-c4c(O)cccc4F)c(F)cc23)C(C)C1
inactive: viability, T/C [6] 24.3% | viability, T/C [7] 27.3% | viability, T/C [8] 26.8% | viability, T/C (second compound 0.1 µM, first compound 0.316 µM) 25.1% | viability, T/C (second compound 0.1 µM, first compound 1 µM) 25.2% | viability, T/C (second compound 0.1 µM, first compound 3.16 µM) 28.5% | viability, T/C [9] 29.5% | viability, T/C [10] 23.9% | viability, T/C [11] 24.7% | viability, T/C (second compound 0.316 µM, first compound 0.316 µM) 27.3% | viability, T/C (second compound 0.316 µM, first compound 1 µM) 24.9% | viability, T/C (second compound 0.316 µM, first compound 3.16 µM) 31.1% | viability, T/C [12] 29.4% | viability, T/C [13] 23% | viability, T/C [14] 28% | viability, T/C (second compound 1 µM, first compound 0.316 µM) 27.8% | viability, T/C (second compound 1 µM, first compound 1 µM) 30.2% | viability, T/C (second compound 1 µM, first compound 3.16 µM) 30% | viability, T/C [15] 32.8% | viability, T/C [16] 25.4% | viability, T/C [17] 27% | viability, T/C (second compound 3.16 µM, first compound 0.316 µM) 35.1% | viability, T/C (second compound 3.16 µM, first compound 1 µM) 32.5% | viability, T/C (second compound 3.16 µM, first compound 3.16 µM) 33.1% | viability, T/C [18] 28.1% | viability, T/C [19] 26.9% | viability, T/C [20] 27.9% | viability, T/C (second compound 10 µM, first compound 0.316 µM) 29.9% | viability, T/C (second compound 10 µM, first compound 1 µM) 30.8% | viability, T/C (second compound 10 µM, first compound 3.16 µM) 34.6%
< 10 nM: IC50 [1] | IC50 [2] | IC50 [3] | IC50 [4] | IC50 [5]

CC(C)n1nc(-c2ccc3oc(N)nc3c2)c2c(N)ncnc21 + COc1cc2nc(C)nc(NC(C)c3cc(N)cc(C(F)(F)F)c3)c2cc1OC1CCOC1
inactive: viability, T/C (second compound 0.1 µM, first compound 0.000316 µM) 103% | viability, T/C (second compound 0.1 µM, first compound 0.001 µM) 77% | viability, T/C (second compound 0.1 µM, first compound 0.00316 µM) 50.4% | viability, T/C [6] 32.2% | viability, T/C [7] 18.1% | viability, T/C [8] 15.5% | viability, T/C (second compound 0.316 µM, first compound 0.000316 µM) 82.5% | viability, T/C (second compound 0.316 µM, first compound 0.001 µM) 64.2% | viability, T/C (second compound 0.316 µM, first compound 0.00316 µM) 46% | viability, T/C [9] 26.9% | viability, T/C [10] 21.4% | viability, T/C [11] 13.8% | viability, T/C (second compound 1 µM, first compound 0.000316 µM) 86.7% | viability, T/C (second compound 1 µM, first compound 0.001 µM) 67.1% | viability, T/C (second compound 1 µM, first compound 0.00316 µM) 32% | viability, T/C [12] 23.9% | viability, T/C [13] 16.5% | viability, T/C [14] 11.3% | viability, T/C (second compound 3.16 µM, first compound 0.000316 µM) 47.8% | viability, T/C (second compound 3.16 µM, first compound 0.001 µM) 42.4% | viability, T/C (second compound 3.16 µM, first compound 0.00316 µM) 25.2% | viability, T/C [15] 17.3% | viability, T/C [16] 11.8% | viability, T/C (second compound 10 µM, first compound 0.000316 µM) 37.7% | viability, T/C (second compound 10 µM, first compound 0.001 µM) 30.7% | viability, T/C (second compound 10 µM, first compound 0.00316 µM) 20.9% | viability, T/C [18] 14.8% | viability, T/C [19] 10.9%
1.8 nM: IC50 [3]
3.27 nM: IC50 [1]
active: viability, T/C [17] 8.61% | viability, T/C [20] 8.71%
2.34 nM: IC50 [2]
< 0.316 nM: IC50 [4] | IC50 [5]

CCNC(=O)CC1N=C(c2ccc(Cl)cc2)c2cc(OC)ccc2-n2c(C)nnc21 (stereo unspecified)
880 nM [middle of 5 runs]: IC50 (curve of compound)
inactive: viability, T/C (compound 0.0316 µM) 105% [middle of 5 runs] | viability, T/C (compound 0.1 µM) 90% [middle of 5 runs] | viability, T/C (compound 0.316 µM) 62.1% [middle of 5 runs] | viability, T/C (compound 1 µM) 48.2% [middle of 5 runs] | viability, T/C (compound 3.16 µM) 44.7% [middle of 5 runs]

Reference: PubChem BioAssay AID1963858 (Molecular Pharmacology Branch, DTP, NCI, 2024)
